Results from patent US20250235543A1, “MODIFIED PROTEINS AND PROTEIN DEGRADERS” (Cullgen (Shanghai), Inc., priority 2021, published 2025).

test system: P300/CBP; test: P300/CBP cellular protein degradation; assay type: cell-based
Protocol: Cultured cells were washed with cold PBS once and lysed in cold RIPA buffer supplemented with protease inhibitors and phosphatase inhibitors (Beyotime Biotechnology). The solutions were then incubated at 4° C. for 30 min with gentle agitation to fully lysed cells. Cell lysates were centrifuged at 13,000 rpm for 10 min at 4° C. and pellets were discarded. Total protein concentrations in the lysates were determined following BCA assays (Beyotime Biotechnology). Cell lysates were mixed with Laemmli loading buffer and heated at 99° C. for 5 min. Proteins were resolved on SDS-PAGE and visualized using Western ECL Substrate kits on a ChemiDoc MP Imaging system (Bio-Rad). Protein bands were quantitated using the Image Lab software provided by Bio-Rad.

Structure (SMILES) | P300/CBP Degradation (100 nM)
CC(=O)N1CCc2c(c(N3CCCc4cc(-c5cnn(C)c5)c(C(F)F)cc43)nn2C2CCN(C(=O)CCCCCCC(=O)Nc3ccccc3C(=O)Nc3nc(C)c([N+](=O)[O-])s3)CC2)C1 [CPD-203, 2-(8-(4-(5-Acetyl-3-(7-(difluoromethyl)-6-(1-methyl-1H-pyrazol-4-yl)-3,4-dihydroquinolin-1(2H)-yl)-4,5,6,7-tetrahydro-1H-pyrazolo[4,3-c]pyridin-1-yl)piperidin-1-yl)-8-oxooctanamido)-N-(4-methyl-5-nitrothiazol-2-yl)benzamide] | D (degradation activity < 30%)
CC(=O)N1CCc2c(c(N3CCCc4cc(-c5cnn(C)c5)c(C(F)F)cc43)nn2C2CCN(CC(=O)NCCCCCCCCNc3ccc(C(=O)Nc4ncc(C)s4)c(C)c3)CC2)C1 [CPD-195, 4-((8-(2-(4-(5-Acetyl-3-(7-(difluoromethyl)-6-(1-methyl-1H-pyrazol-4-yl)-3,4-dihydroquinolin-1(2H)-yl)-4,5,6,7-tetrahydro-1H-pyrazolo[4,3-c]pyridin-1-yl)piperidin-1-yl)acetamido)octyl)amino)-2-methyl-N-(5-methylthiazol-2-yl)benzamide] | D (degradation activity < 30%)
CC(=O)N1CCc2c(c(N3CCCc4cc(-c5cnn(C)c5)c(C(F)F)cc43)nn2C2CCN(CC(=O)NCCC(=O)Nc3ccccc3C(=O)Nc3nc(C)c([N+](=O)[O-])s3)CC2)C1 [CPD-210, 2-(3-(2-(4-(5-Acetyl-3-(7-(difluoromethyl)-6-(1-methyl-1H-pyrazol-4-yl)-3,4-dihydroquinolin-1(2H)-yl)-4,5,6,7-tetrahydro-1H-pyrazolo[4,3-c]pyridin-1-yl)piperidin-1-yl)acetamido)propanamido)-N-(4-methyl-5-nitrothiazol-2-yl)benzamide] | D (degradation activity < 30%)
CC(=O)N1CCc2c(c(N3CCCc4cc(-c5cnn(C)c5)c(C(F)F)cc43)nn2C2CCN(CC(=O)NCCCCCC(=O)Nc3ccccc3C(=O)Nc3nc(C)c([N+](=O)[O-])s3)CC2)C1 [CPD-213, 2-(6-(2-(4-(5-Acetyl-3-(7-(difluoromethyl)-6-(1-methyl-1H-pyrazol-4-yl)-3,4-dihydroquinolin-1(2H)-yl)-4,5,6,7-tetrahydro-1H-pyrazolo[4,3-c]pyridin-1-yl)piperidin-1-yl)acetamido)hexanamido)-N-(4-methyl-5-nitrothiazol-2-yl)benzamide] | D (degradation activity < 30%)
CC(=O)N1CCc2c(c(N3CCCc4cc(-c5cnn(C)c5)c(C(F)F)cc43)nn2C2CCN(CC(=O)NCCCCCCCCCCC(=O)Nc3ccccc3C(=O)Nc3nc(C)c([N+](=O)[O-])s3)CC2)C1 [CPD-218, 2-(11-(2-(4-(5-Acetyl-3-(7-(difluoromethyl)-6-(1-methyl-1H-pyrazol-4-yl)-3,4-dihydroquinolin-1(2H)-yl)-4,5,6,7-tetrahydro-1H-pyrazolo[4,3-c]pyridin-1-yl)piperidin-1-yl)acetamido)undecanamido)-N-(4-methyl-5-nitrothiazol-2-yl)benzamide] | D (degradation activity < 30%)
CC(=O)N1CCc2c(c(N3CCCc4cc(-c5cnn(C)c5)c(C(F)F)cc43)nn2C2CCN(CC(=O)NCCCCCCCCCNc3ccc(C(=O)Nc4ncc(C)s4)c(C)c3)CC2)C1 [CPD-196, 4-((9-(2-(4-(5-Acetyl-3-(7-(difluoromethyl)-6-(1-methyl-1H-pyrazol-4-yl)-3,4-dihydroquinolin-1(2H)-yl)-4,5,6,7-tetrahydro-1H-pyrazolo[4,3-c]pyridin-1-yl)piperidin-1-yl)acetamido)nonyl)amino)-2-methyl-N-(5-methylthiazol-2-yl)benzamide] | D (degradation activity < 30%)
CC(=O)N1CCc2c(c(N3CCCc4cc(-c5cnn(C)c5)c(C(F)F)cc43)nn2C2CCN(CC(=O)NCCCCCCCCC(=O)Nc3ccccc3C(=O)Nc3nc(C)c([N+](=O)[O-])s3)CC2)C1 [CPD-216, 2-(9-(2-(4-(5-Acetyl-3-(7-(difluoromethyl)-6-(1-methyl-1H-pyrazol-4-yl)-3,4-dihydroquinolin-1(2H)-yl)-4,5,6,7-tetrahydro-1H-pyrazolo[4,3-c]pyridin-1-yl)piperidin-1-yl)acetamido)nonanamido)-N-(4-methyl-5-nitrothiazol-2-yl)benzamide] | D (degradation activity < 30%)
CC(=O)N1CCc2c(c(N3CCCc4cc(-c5cnn(C)c5)c(C(F)F)cc43)nn2C2CCN(CC(=O)NCCOCCOCCNc3ccc(C(=O)Nc4ncc(C)s4)c(C)c3)CC2)C1 [CPD-198, 4-((2-(2-(2-(2-(4-(5-Acetyl-3-(7-(difluoromethyl)-6-(1-methyl-1H-pyrazol-4-yl)-3,4-dihydroquinolin-1(2H)-yl)-4,5,6,7-tetrahydro-1H-pyrazolo[4,3-c]pyridin-1-yl)piperidin-1-yl)acetamido)ethoxy)ethoxy)ethyl)amino)-2-methyl-N-(5-methylthiazol-2-yl)benzamide] | D (degradation activity < 30%)
CC(=O)N1CCc2c(c(N3CCCc4cc(-c5cnn(C)c5)c(C(F)F)cc43)nn2C2CCN(C(=O)CCCCCCCCCCC(=O)Nc3ccccc3C(=O)Nc3nc(C)c([N+](=O)[O-])s3)CC2)C1 [CPD-207, 2-(12-(4-(5-Acetyl-3-(7-(difluoromethyl)-6-(1-methyl-1H-pyrazol-4-yl)-3,4-dihydroquinolin-1(2H)-yl)-4,5,6,7-tetrahydro-1H-pyrazolo[4,3-c]pyridin-1-yl)piperidin-1-yl)-12-oxododecanamido)-N-(4-methyl-5-nitrothiazol-2-yl)benzamide] | D (degradation activity < 30%)
CC(=O)N1CCc2c(c(N3CCCc4cc(-c5cnn(C)c5)c(C(F)F)cc43)nn2C2CCN(C(=O)CCCCCCCCCC(=O)Nc3ccccc3C(=O)Nc3nc(C)c([N+](=O)[O-])s3)CC2)C1 [CPD-206, 2-(11-(4-(5-Acetyl-3-(7-(difluoromethyl)-6-(1-methyl-1H-pyrazol-4-yl)-3,4-dihydroquinolin-1(2H)-yl)-4,5,6,7-tetrahydro-1H-pyrazolo[4,3-c]pyridin-1-yl)piperidin-1-yl)-11-oxoundecanamido)-N-(4-methyl-5-nitrothiazol-2-yl)benzamide] | D (degradation activity < 30%)
CC(=O)N1CCc2c(c(N3CCCc4cc(-c5cnn(C)c5)c(C(F)F)cc43)nn2C2CCN(C(=O)CCC(=O)Nc3ccccc3C(=O)Nc3nc(C)c([N+](=O)[O-])s3)CC2)C1 [CPD-199, 2-(4-(4-(5-Acetyl-3-(7-(difluoromethyl)-6-(1-methyl-1H-pyrazol-4-yl)-3,4-dihydroquinolin-1(2H)-yl)-4,5,6,7-tetrahydro-1H-pyrazolo[4,3-c]pyridin-1-yl)piperidin-1-yl)-4-oxobutanamido)-N-(4-methyl-5-nitrothiazol-2-yl)benzamide] | D (degradation activity < 30%)
